Measurements reported in BindingDB's records for doi:10.1021/jm201708h (Progen Pharmaceuticals, 2012).

Biological target: T1, Heparanase (Homo sapiens, UniProt Q9Y251)
T1 sequence (Q9Y251 whole entry): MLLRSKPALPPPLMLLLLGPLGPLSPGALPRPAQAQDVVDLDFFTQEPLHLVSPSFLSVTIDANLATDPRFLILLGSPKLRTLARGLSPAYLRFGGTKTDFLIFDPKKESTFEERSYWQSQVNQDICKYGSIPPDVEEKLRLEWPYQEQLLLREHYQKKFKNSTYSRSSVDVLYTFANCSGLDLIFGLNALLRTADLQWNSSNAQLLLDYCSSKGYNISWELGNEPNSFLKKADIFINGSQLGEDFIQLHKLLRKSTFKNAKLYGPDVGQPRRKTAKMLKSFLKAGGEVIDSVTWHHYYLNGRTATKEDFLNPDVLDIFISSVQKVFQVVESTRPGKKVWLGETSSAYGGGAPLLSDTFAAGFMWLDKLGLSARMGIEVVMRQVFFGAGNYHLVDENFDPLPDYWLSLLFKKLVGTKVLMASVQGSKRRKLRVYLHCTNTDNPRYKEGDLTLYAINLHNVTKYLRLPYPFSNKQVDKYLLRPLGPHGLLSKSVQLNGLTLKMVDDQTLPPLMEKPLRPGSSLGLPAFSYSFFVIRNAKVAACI
Experiment: Inhibition of human recombinant heparanase after 2 to 24 hrs by WST1 dye based fondaparinux assay

- Ki: 7.9 nM
Compound: O=P(O)(O)OC[C@H]1O[C@H](O[C@@H]2[C@H](OS(=O)(=O)O)[C@@H](O[C@@H]3[C@H](OS(=O)(=O)O)[C@@H](O[C@@H]4[C@H](OS(=O)(=O)O)[C@@H](O[C@@H]5[C@@H](OS(=O)(=O)O)O[C@H](COS(=O)(=O)O)[C@@H](OS(=O)(=O)O)[C@@H]5OS(=O)(=O)O)O[C@H](COS(=O)(=O)O)[C@H]4OS(=O)(=O)O)O[C@H](COS(=O)(=O)O)[C@H]3OS(=O)(=O)O)O[C@H](COS(=O)(=O)O)[C@H]2OS(=O)(=O)O)[C@@H](OS(=O)(=O)O)[C@@H](OS(=O)(=O)O)[C@@H]1OS(=O)(=O)O [PI-88]
